Assay results from patent US5877154A, “Pharmaceutical compositions for the treatment or prevention of disorders in the eye” (Ramot University Authority for Applied Research and …, priority 1992, dated 1999).

Key:
[1] = system: prostaglandin type E2 (PGE2) production; assay: PGE2 production in eyes of rats exposed to UV irradiation; type: in vivo, albino rats; conditions: dexamethasone 4 mg/kg per day, melanotropin 10 μg per day
Method: One eye of albino rats of either sex weighing 200-250 gm was exposed to UV irradiation (200-400 nm) for 15 min. daily for 4 consecutive days. The other contralateral eye of each rat was not exposed to the irradiation and served as a control.
The animals were divided into three groups (8 rats in each group) as follows: (1) untreated; (2) rabbits exposed to UV irradiation and a daily intermuscular (i.m.) injection of 4 mg/kg dexamethasone; and (3) rabbits exposed to UV irradiation and treated with a daily injection (i.m.) of 10 μg/kg of melanotropin.
In the treated group of animals, the specific treatment began each day within one hour after the UV exposure. The animals were sacrificed two days following the last UV irradiation and the eyes were frozen at -70° C. The cornea was disected and incubated in a shaking bath at 37° C. for 40 mins. in a Heppes buffer (pH=7.4). At the end of the incubation, a sample was obtained from the medium and the contents of the leukotrien B4 (LTB4) was determined by a radioimmunoassay (RIA) technique using a New England Nuclear Kit with a specific antibody against LTB4.
The production of prostaglandin type E2 (PGE2) was also measured in the eyes of three groups of rats. The amount of PGE2 in the eyes exposed to UV irradiation was higher than in the nonirradiated control eyes (4.1±1.9 pg/mg weight as compared to 1.8±0.3 pg/mg weight, p=0.001).

[2] = system: leukotriene B4 (LTB4) production in the corneas; assay: LTB4 production in corneas of rats exposed to UV irradiation; type: in vivo, albino rats; conditions: dexamethasone 4 mg/kg per day, melanotropin 10 μg/kg per day, irradiated untreated 2.47±0.8
Method: The antinflammatory activity of melanotropin in the eye was measured by the ability of the melanotropin to inhibit the production of the leukotriene (LTB4) which is produced during the inflammatory response elicited by noxious stimulae to the cornea.
The ability of melanotropin to inhibit an inflammatory response was determined in corneas of albino rats subjected to UV irradiation. The parameter used to measure the inflammatory response was the amount of production of leukotriene B4--known for its modulatory action in inflammation.
One eye of albino rats of either sex weighing 200-250 gm was exposed to UV irradiation (200-400 nm) for 15 min. daily for 4 consecutive days. The other contralateral eye of each rat was not exposed to the irradiation and served as a control. […]
In the treated group of animals, the specific treatment began each day within one hour after the UV exposure. […] At the end of the incubation, a sample was obtained from the medium and the contents of the leukotrien B4 (LTB4) was determined by a radioimmunoassay (RIA) technique using a New England Nuclear Kit with a specific antibody against LTB4.

[3] = system: human skin fibroblast (HSF) cell culture; assay: 3H-Thymidine uptake by human skin fibroblast cell culture; type: cell-based; conditions: bFGF 9 ng/ml; EGF 10 ng/ml; melanotropin 10^-6 M and 10^-7 M; serum free medium, FIG. 2
Method: HSF cells were grown in DMEM (Dulbeccos Modified Eagles Media) supplemented with 10% heat inactivated fetal calf serum, 2 mM glutamine and antibiotics (100 U/mi penicillin G, 0.25 mg/ml amphotericin B and 0.1 mg/ml streptomycin) (Biological Industries, Beth Haemek, Israel) in 56.7 cm^2 tissue culture flasks (Nunc, Roskilde, Denmark) at 37° C. in a 10% CO2 humidified atmosphere incubator. When the cells reached confluency, they were tripsinized by incubation with 0.083% tripsine (Biological Industries, Beth HaEmek, Israel) for a few minutes at 37° C. and seeded (please complete). The growth medium of the cells with or without drugs was changed twice a week.
The wells were then divided into five groups and a different medium was added to the wells of each group as described in Example 1. The medium added to each of the five groups was: (1) serum free medium containing melanotropin 10^-6 M; (2) serum free medium containing melanotropin 10^-7 M; (3) serum free medium containing EGF 10 ng/ml; (4) serum free medium containing bFGF 9 nn/ml; and (5) serum free medium only.
The degree of ^3 H-Thymidine uptake by human skin fibroblast was determined as described in Example 1.

[4] = system: bovine vascular endothilial cells (ABAE); assay: 3H-Thymidine uptake by bovine vascular endothelial cells; type: cell-based; conditions: bFGF 9 ng/ml; EGF 10 ng/ml; melanotropin 10^-6 M and 10^-7 M; single set of experiments
Method: ABAE cells were grown in DMEM (Dulbeccos Modified Eagles Media) supplemented with 5% heat inactivated fetal calf serum, 5% heat inactivated newborn calf serum, 2 mM glutamine and antibiotics (100 U/ml penicillin G, 0.25 mg/ml amphotericin B and 0.1 mg/ml streptomycin) (all from Biological Industries, Beth HaEmek, Israel) in 56.7 cm^2 tissue culture dishes (Nunc, Roskilde, Denmark) at 37° C. in a humidified atmosphere incubator with 10% CO2.
The cultures were supplemented every other day with 10^-9 ng/ml of bFGF until they reached confluency.
The cells were then trypsinized by adding 0.041% trypsin (Biological Industries, Beth HaEmek, Israel) for a few minutes at 37° C. The cells were then diluted by a factor of six and plated in microwell plates. Growth medium was changed twice a week.
The cells were then divided into five groups as described in Examples 1 and 2 and a different medium was added to the wells of each group as follows: (1) serum free medium containing melanotropin 10^-6 M; (2) serum free medium containing melanotropin 10^-7 M; (3) serum free medium containing EGF 10 ng/ml; (4) serum free medium containing bFGF 9 ng/ml; and (5) serum free medium alone.
The degree of ^3 H-Thymidine uptake by the cells was again determined as described in Examples 1 and 2.

bovine RPE cells = assay: wound closure technique: proliferation and migration of RPE cells over denuded area; type: cell-based; conditions: bFGF 10^-10 mg/ml
Method: The ability of RPE cells to proliferate and migrate over denuded areas was measured using a slight modification of the previously known technique termed "wound closure technique" (Jumblatt and Neufeld, 1986).
In this example bovine RPE cells were grown as described in Example 1 and plated in microwell plates containing 16 ml wells. When the cultures reached confluency, sloughing of the cells from a centrally located area in each well was carried out using a very sharp blade. In order to remove non adherent cells, each well was rinsed with a 1 ml Earle's balanced salt solution (EBSS: Gibco). The cultures were photographed at the time of the sloughing and at 12, 24 and 48 hours after the sloughing procedure. In this way the size of the denuded area in the culture at the time of the sloughing was documented and could be compared later to the same cultures at different time periods after the denudation.
The ability of the bovine RPE cells to proliferate and migrate over the denuded area in the well was determined by analyzing the covered and uncovered area in the photographs of the cultures taken at different time periods as described in Jumblatt & Neufeld (ibid). The rate of the "wound" closure was calculated as mm^2 per hour or as the percentage of the covered area in the culture wells at a specific time period.
The bovine RPE cell cultures were divided into six groups. […]

Row | Compound | PGE2 produced by UV irradiated corneas compared with irradiated but untreated corneas [1] | LTB4 produced by the corneas of the UV irradiated eyes [2] | 3H-Thymidine uptake of human skin fibroblasts as compared to cells treated with medium alone [3] | 3H-Thymidine uptake by the bovine vascular endothilium cells [4] | cell covered area in the wells (bovine RPE cells; 12 hours after the wounding) | cell covered area in the culture (bovine RPE cells; 48 hours after addition, p<0.05 vs medium alone)
1 | C[C@@H]1C[C@H]2[C@@H]3CCC4=CC(=O)C=C[C@]4(C)[C@@]3(F)[C@@H](O)C[C@]2(C)[C@@]1(O)C(=O)CO [dextamethasone, dexamethasone] | lower than the amount of the PGE2 in the irradiated but untreated rats' corneas | 9.38±2.4 pg/mg weight | – | – | – | –
2 | EGF: Epidermal growth factor, comparison growth factor | – | – | did not cause any increase | significant induction | – | –
3 | bFGF: basic fibroblast growth factor, comparison growth factor | – | – | five-fold increase | significant induction | 11.4±1.1 mm^2 | 21.1±0.7 mm^2
